Measured values reported in ChEMBL document CHEMBL3137667, “[Drug-induced liver injury; fourteenth updated edition of the bibliographic database of liver injuries and related drugs]” (Gastroenterol Clin Biol, 2004).

How the values were obtained:
[1] = Highest frequency of moderate liver toxicity observed during clinical trials, expressed as a percentage. [column '% BIOL' in source]; settings: human
[2] = Highest frequency of acute liver toxicity observed during clinical trials, expressed as a percentage. [column '% AIGUE' in source]; settings: human
[3] = human, serum
[4] = human, serum; remark: listed apart in the source
[5] = human
[6] = human; remark: listed apart in the source
[7] = human; remark: listed apart in the source
[8] = human, serum, 4383 h
[9] = human; remark: listed apart in the source
[10] = human; remark: listed apart in the source
[11] = human; remark: listed apart in the source
[12] = human; remark: listed apart in the source
[13] = human; remark: listed apart in the source
[14] = human; remark: listed apart in the source
[15] = human; remark: listed apart in the source
[16] = Presence of at least one case with successful reintroduction. [column 'REINT' in source]; settings: human
[17] = Comments (NB not yet translated). [column 'COMMENTAIRES' in source]; settings: human
[18] = Times to onset, minimal and maximal, observed in the indexed observations. [column 'DELAI' in source]; settings: human
[19] = Proposed mechanism(s) of liver damage. [column 'MEC' in source]; settings: human
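Throughout, for Hepatotoxicity (association with vascular disease): count of indexed literature references reporting vascular liver injury in humans, e.g. peliosis hepatitis, hepatic veno-occlusive disease or Budd-Chiari syndrome.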
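Throughout, for Hepatotoxicity (benign tumour): value is a count of indexed literature references citing a benign tumour confirmed by histopathology.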
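Throughout, for Hepatotoxicity (choleostasis): human cholestatic liver injury, shown by histopathology or by peak ALT or AST elevation over alkaline phosphatase ratio below 2, value counts indexed literature reports.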
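Throughout, for Hepatotoxicity (chronic liver disease): chronic liver injury confirmed by histopathology or persistently raised serum aminotransferase activity beyond 6 months, value given as the count of indexed literature references.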
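Throughout, for Hepatotoxicity (cirrhosis): value is a count of indexed literature references reporting cirrhosis confirmed by histopathology.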
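Throughout, for Hepatotoxicity (cytolytic): human cytolytic liver injury, shown by histopathology or by a ratio above 5 of peak ALT or AST elevation to alkaline phosphatase elevation, value counts indexed references.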
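Throughout, for Hepatotoxicity (granulomatous hepatitis): value is a count of indexed literature references reporting granulomatous liver disease confirmed by histopathology.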
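Throughout, for Hepatotoxicity (malignant tumour): malignant tumour confirmed by histopathology, value gives the count of indexed literature references reporting it.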
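Throughout, for Hepatotoxicity (severe hepatitis): human clinical data: severe hepatitis, meaning potentially life-threatening liver failure or clinically observed cases, the value counts how many indexed literature references report it.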
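Throughout, for Hepatotoxicity (steatosis): steatosis confirmed by histopathology, value is the count of indexed references.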

Structure (SMILES)	Hepatotoxicity (moderate) [1]	Hepatotoxicity (acute) [2]	Hepatotoxicity (moderate) [3]	Hepatotoxicity (acute) [4]	Hepatotoxicity (cytolytic) [5]	Hepatotoxicity (choleostasis) [6]	Hepatotoxicity (severe hepatitis) [7]	Hepatotoxicity (chronic liver disease) [8]	Hepatotoxicity (cirrhosis) [9]	Hepatotoxicity (granulomatous hepatitis) [10]	Hepatotoxicity (association with vascular disease) [11]	Hepatotoxicity (steatosis) [12]	Hepatotoxicity (malignant tumour) [13]	Hepatotoxicity (benign tumour) [14]	Hepatotoxicity (animal toxicity known) [15]	Hepatotoxicity (successful reintroduction) [16]	Hepatotoxicity (comment) [17]	Hepatotoxicity (time to onset) [18]	Hepatotoxicity (mechanism) [19]
CC(C)/N=c1\cc2n(-c3ccc(Cl)cc3)c3ccccc3nc-2cc1Nc1ccc(Cl)cc1 [CLOFAZIMINE]	16%	5.6%	2	1	0	1	0	0	0	0	0	0	0	0	yes				
CCOC(=O)C1(c2ccccc2)CCN(CCC(O)c2ccccc2)CC1 (stereo not given) [PHENOPERIDINE]	0%	0%	0	1	0	1	0	0	0	0	0	0	0	0	yes				
CC[C@]1(O)C[C@@H]2CN(CCc3c([nH]c4ccccc34)[C@@](C(=O)OC)(c3cc4c(cc3OC)N(C)[C@H]3[C@@](O)(C(N)=O)[C@H](O)[C@]5(CC)C=CCN6CC[C@]43[C@@H]65)C2)C1 [VINDESINE]	9.1%	0%	2	0	0	0	0	0	0	0	0	0	0	0	yes				
CC(=O)O[C@]1(C(C)=O)CC[C@H]2[C@@H]3C=C(C)C4=CC(=O)CC[C@]4(C)[C@H]3CC[C@@]21C [MEGESTROL ACETATE]	12.8%	2.7%	4	1	1	0	0	0	0	0	0	0	0	0	yes				
CC1(C)[C@H](C(=O)O)N2C(=O)C[C@H]2S1(=O)=O.CCN1CCN(C(=O)N[C@@H](C(=O)N[C@@H]2C(=O)N3C(C(=O)O)=C(CSc4nnnn4C)CS[C@H]23)c2ccc(O)cc2)C(=O)C1=O					0	0		0	0	0	0	0	0	0	yes				
CCCNC(=O)NS(=O)(=O)c1ccc(Cl)cc1 [CHLORPROPAMIDE]	25%	0.5%	3	34	9	29	1	0	0	4	0	0	0	0		yes	RC/TOLBUTAMIDE/TOLAZAMIDE #CBP	2 weeks - 2 years	Allergic, Dose-dependant
C[C@](N)(Cc1ccc(O)c(O)c1)C(=O)O [METHYLDOPA]	35%	1.3%	10	24	16	10	13	27	7	8	0	3	1	0		yes	AC_ANTI-N/-ML/-MF RC/ALLOPURINOL	3 days - 12 years	Allergic, Toxic
CC(C)c1nc(CN(C)C(=O)N[C@H](C(=O)N[C@@H](Cc2ccccc2)C[C@H](O)[C@H](Cc2ccccc2)NC(=O)OCc2cncs2)C(C)C)cs1 [RITONAVIR]	44%	32.1%	10	14	11	2	1	0	0	0	0	1	0	0		yes	REACTIVATION_HVB/HVC	< 1 day - 6 months	Dose-dependant
COc1ccc(Cc2nccc3cc(OC)c(OC)cc23)cc1OC [PAPAVERINE]	53%	3.3%	11	9	7	6	0	4	3	1	0	0	0	0		yes	AC_ANTI-ADN/-N PERICHOLANGITE	1 day - 11 years	Allergic, Toxic Metabolite
COc1ccc2c(C(=O)c3ccc(Cl)cc3)c(C)n(CC(=O)O)c2c1 [CLOMETACIN]	0%	0%	6	18	14	12	9	21	9	0	0	0	0	0		yes	AC_ANTI-ADN/-ML HLAB8	1 week - 10 years	Allergic
